Data published in PubChem BioAssay AID212 (DTP/NCI, 2004).
Where “and” joins values, the source holds several entries; their conditions need not be identical. Identical values can stand only once. Records with an inconclusive call do not appear. Where a SMILES comes first, the peptide text is derived from it. The star is where a group is joined. Trt = c1ccc(C(c2ccccc2)(c2ccccc2)*)cc1; Cbz = O=C(OCc1ccccc1)*

Test system: BDF1 mice, colon carcinoma 38 sc, T/C %
Assay: NCI In Vivo Anticancer Drug Screen. Data for tumor model Colon Carcinoma 38 (subcutaneous) in B6D2F1 (BDF1) mice
Summary of the method: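 Transplantable tumor in mice; compound-treated vs vehicle-dosed controls. Measured survival or tumor size; value = T ÷ C.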

[1] = endpoint: median tumor weight (est.), dose: 25.0 mg/kg/injection, schedule: Q07DX002 (ip), vehicle: saline with Tween-80, higher = larger tumour
[2] = endpoint: median tumor weight (est.), dose: 100.0 mg/kg/injection, schedule: Q07DX002 (ip), vehicle: saline with Tween-80, higher = larger tumour
[3] = endpoint: median tumor weight (est.), dose: 200.0 mg/kg/injection, schedule: Q07DX002 (ip), vehicle: saline with Tween-80, higher = larger tumour
[4] = endpoint: median tumor weight (est.), dose: 12.5 mg/kg/injection, schedule: Q07DX002 (ip), vehicle: saline, higher = larger tumour
[5] = endpoint: median tumor weight (est.), dose: 25.0 mg/kg/injection, schedule: Q07DX002 (ip), vehicle: saline, higher = larger tumour
[6] = endpoint: median tumor weight (est.), dose: 50.0 mg/kg/injection, schedule: Q07DX002 (ip), vehicle: saline, higher = larger tumour
[7] = endpoint: median tumor weight (est.), dose: 100.0 mg/kg/injection, schedule: Q07DX002 (ip), vehicle: saline, higher = larger tumour
[8] = endpoint: median tumor weight (est.), dose: 200.0 mg/kg/injection, schedule: Q07DX002 (ip), vehicle: saline, higher = larger tumour
[9] = endpoint: median tumor weight (est.), dose: 100.0 mg/kg/injection, schedule: Q07DX002 (ip), vehicle: Klucel (hydroxypropylcellulose) (HPC), higher = larger tumour
[10] = endpoint: median tumor weight (est.), dose: 200.0 mg/kg/injection, schedule: Q07DX002 (ip), vehicle: Klucel (hydroxypropylcellulose) (HPC), higher = larger tumour
[11] = endpoint: median tumor weight (est.), dose: 25.0 mg/kg/injection, schedule: Q07DX002 (ip), vehicle: Klucel (hydroxypropylcellulose) (HPC), higher = larger tumour
[12] = endpoint: median tumor weight (est.), dose: 50.0 mg/kg/injection, schedule: Q07DX002 (ip), vehicle: Klucel (hydroxypropylcellulose) (HPC), higher = larger tumour
[13] = endpoint: median tumor weight (est.), dose: 100.0 mg/kg/injection, schedule: Q07DX002 (ip), vehicle: suspension in saline, higher = larger tumour
[14] = endpoint: median tumor weight (est.), dose: 400.0 mg/kg/injection, schedule: Q07DX002 (ip), vehicle: Klucel (hydroxypropylcellulose) (HPC), higher = larger tumour

## CS(=O)(=O)OCCCNCCCOS(C)(=O)=O
endpoint: median tumor weight (est.), dose: 9.3 mg/kg/injection, schedule: Q07DX003 (ip), vehicle: saline, higher = larger tumour
  T/C: 43 % of control
endpoint: median tumor weight (est.), dose: 18.75 mg/kg/injection, schedule: Q07DX003 (ip), vehicle: saline, higher = larger tumour
  T/C: 73 % of control
endpoint: median tumor weight (est.), dose: 37.5 mg/kg/injection, schedule: Q07DX003 (ip), vehicle: saline, higher = larger tumour
  T/C: 58 % of control
endpoint: median tumor weight (est.), dose: 75.0 mg/kg/injection, schedule: Q07DX003 (ip), vehicle: saline, higher = larger tumour
  T/C: 36 % of control

## O=C(CCCN1CCC(O)(c2cccc(C(F)(F)F)c2)CC1)c1ccc(F)cc1
endpoint: median tumor weight (est.), dose: 6.25 mg/kg/injection, schedule: Q07DX003 (ip), vehicle: Klucel (hydroxypropylcellulose) (HPC), higher = larger tumour
  T/C: 78 % of control and 80 % of control
endpoint: median tumor weight (est.), dose: 12.5 mg/kg/injection, schedule: Q07DX003 (ip), vehicle: Klucel (hydroxypropylcellulose) (HPC), higher = larger tumour
  T/C: 84 % of control and 95 % of control
endpoint: median tumor weight (est.), dose: 25.0 mg/kg/injection, schedule: Q07DX003 (ip), vehicle: Klucel (hydroxypropylcellulose) (HPC), higher = larger tumour
  T/C: 113 % of control and 93 % of control
endpoint: median tumor weight (est.), dose: 50.0 mg/kg/injection, schedule: Q07DX003 (ip), vehicle: Klucel (hydroxypropylcellulose) (HPC), higher = larger tumour
  T/C: 100 % of control

## c1ccc2sc(SSN3CC4CCC(CC4)C3)nc2c1
endpoint: median tumor weight (est.), dose: 12.5 mg/kg/injection, schedule: Q07DX002 (ip), vehicle: saline with Tween-80, higher = larger tumour
  T/C: 110 % of control and 85 % of control
[1]
  T/C: 82 % of control and 93 % of control
[2]
  T/C: 63 % of control and 64 % of control
[3]
  T/C: 113 % of control and 115 % of control

## Cc1cc(SCC(=O)c2ccc(Br)cc2)cc(C)[o+]1
[4]
  T/C: 122 % of control
[5]
  T/C: 77 % of control and 101 % of control
[6]
  T/C: 111 % of control and 107 % of control
[7]
  T/C: 98 % of control and 100 % of control
[8]
  T/C: 100 % of control

## O=C(Cc1cccc2c(=O)cc(-c3ccccc3)oc12)OCCN1CCOCC1
[9]
  T/C: 115 % of control
[10]
  T/C: 92 % of control

## O=S(=O)(O)O
[11]
  T/C: 110 % of control
[12]
  T/C: 103 % of control
[9]
  T/C: 78 % of control
[10]
  T/C: 112 % of control

## CCCN1COC(OCC)C(C)(C)C1 (stereo not drawn)
[1]
  T/C: 73 % of control
[2]
  T/C: 68 % of control and 73 % of control
[3]
  T/C: 77 % of control

## CC1CC2OC2/C=C\C=C\C(=O)Cc2c(Cl)c(O)cc(O)c2C(=O)O1 (stereo not drawn)
endpoint: median tumor weight (est.), dose: 30.0 mg/kg/injection, schedule: Q07DX002 (ip), vehicle: Klucel (hydroxypropylcellulose) (HPC), higher = larger tumour
  T/C: 72 % of control
endpoint: median tumor weight (est.), dose: 60.0 mg/kg/injection, schedule: Q07DX002 (ip), vehicle: Klucel (hydroxypropylcellulose) (HPC), higher = larger tumour
  T/C: 74 % of control
endpoint: median tumor weight (est.), dose: 120.0 mg/kg/injection, schedule: Q07DX002 (ip), vehicle: Klucel (hydroxypropylcellulose) (HPC), higher = larger tumour
  T/C: 105 % of control

## COc1cccc2c1C(=O)c1c(O)c3c(c(O)c1C2=O)C[C@@](O)(C(C)=O)C[C@@H]3OC1CC(N(C)C)C(O)C(C)O1 (stereo partly drawn)
endpoint: median survival time, dose: 6.4 mg/kg/injection, schedule: Q07DX002 (iv), vehicle: saline, higher = longer survival
  T/C: 96 % of control
endpoint: median survival time, dose: 10.0 mg/kg/injection, schedule: Q07DX002 (iv), vehicle: saline, higher = longer survival
  T/C: 105 % of control
endpoint: median tumor weight (est.), dose: 2.25 mg/kg/injection, schedule: Q07DX002 (ip), vehicle: saline, higher = larger tumour
  T/C: 75 % of control and 89 % of control

## COC(=O)C(CSC(c1ccccc1)(c1ccccc1)c1ccccc1)NC(=O)C(CC(N)=O)NC(=O)OCc1ccccc1 (stereo not drawn) (Cbz-Asn-Cys(Trt)-OMe; configuration not given here)
endpoint: median tumor weight (est.), dose: 25.0 mg/kg/injection, schedule: Q07DX002 (ip), vehicle: distilled water + Tween-80, higher = larger tumour
  T/C: 95 % of control
endpoint: median tumor weight (est.), dose: 50.0 mg/kg/injection, schedule: Q07DX002 (ip), vehicle: distilled water + Tween-80, higher = larger tumour
  T/C: 60 % of control
endpoint: median tumor weight (est.), dose: 100.0 mg/kg/injection, schedule: Q07DX002 (ip), vehicle: distilled water + Tween-80, higher = larger tumour
  T/C: 95 % of control
endpoint: median tumor weight (est.), dose: 200.0 mg/kg/injection, schedule: Q07DX002 (ip), vehicle: distilled water + Tween-80, higher = larger tumour
  T/C: 84 % of control and 88 % of control
endpoint: median tumor weight (est.), dose: 400.0 mg/kg/injection, schedule: Q07DX002 (ip), vehicle: distilled water + Tween-80, higher = larger tumour
  T/C: 77 % of control
endpoint: median tumor weight (est.), dose: 800.0 mg/kg/injection, schedule: Q07DX002 (ip), vehicle: distilled water + Tween-80, higher = larger tumour
  T/C: 56 % of control

## Oc1ccc(O)cc1
endpoint: median tumor weight (est.), dose: 6.25 mg/kg/injection, schedule: Q07DX002 (ip), vehicle: suspension in saline, higher = larger tumour
  T/C: 80 % of control
endpoint: median tumor weight (est.), dose: 12.5 mg/kg/injection, schedule: Q07DX002 (ip), vehicle: suspension in saline, higher = larger tumour
  T/C: 95 % of control
endpoint: median tumor weight (est.), dose: 25.0 mg/kg/injection, schedule: Q07DX002 (ip), vehicle: suspension in saline, higher = larger tumour
  T/C: 108 % of control
endpoint: median tumor weight (est.), dose: 50.0 mg/kg/injection, schedule: Q07DX002 (ip), vehicle: suspension in saline, higher = larger tumour
  T/C: 94 % of control
[13]
  T/C: 97 % of control

## Cc1cc2nc3c(=O)[nH]c(=O)nc-3n(CC(O)C(O)C(O)C(O)CO)c2cc1C (stereo not drawn)
[6]
  T/C: 100 % of control
[7]
  T/C: 124 % of control
[13]
  T/C: 77 % of control
[8]
  T/C: 108 % of control
endpoint: median tumor weight (est.), dose: 400.0 mg/kg/injection, schedule: Q07DX002 (ip), vehicle: saline, higher = larger tumour
  T/C: 100 % of control
endpoint: median tumor weight (est.), dose: 800.0 mg/kg/injection, schedule: Q07DX002 (ip), vehicle: saline, higher = larger tumour
  T/C: 78 % of control
endpoint: median tumor weight (est.), dose: 800.0 mg/kg/injection, schedule: Q07DX002 (ip), vehicle: suspension in saline, higher = larger tumour
  T/C: 58 % of control and 69 % of control
endpoint: median tumor weight (est.), dose: 1600.0 mg/kg/injection, schedule: Q07DX002 (ip), vehicle: saline, higher = larger tumour
  T/C: 72 % of control

## Cn1/c2cc/c1=C(\c1ccc(S(=O)(=O)O)cc1)c1ccc([n-]1)/C(c1ccc(S(=O)(=O)O)cc1)=c1/cc/c([nH]1)=C(\c1ccc(S(=O)(=O)O)cc1)c1ccc([n-]1)/C=2c1ccc(S(=O)(=O)O)cc1.O.O=S(=O)(O)C(F)(F)F.[Cu+2]
[4]
  T/C: 79 % of control
[5]
  T/C: 70 % of control
[6]
  T/C: 77 % of control
[7]
  T/C: 89 % of control
[8]
  T/C: 80 % of control

## O=C(O)C1(NO)CCCCC1
[11]
  T/C: 56 % of control
[12]
  T/C: 86 % of control and 105 % of control
[14]
  T/C: 118 % of control and 94 % of control
endpoint: median tumor weight (est.), dose: 800.0 mg/kg/injection, schedule: Q07DX002 (ip), vehicle: Klucel (hydroxypropylcellulose) (HPC), higher = larger tumour
  T/C: 112 % of control and 103 % of control

## CN(C)C1C(=O)C(C(=O)NP(=O)(NCCCO)N(CCCl)CCCl)=C(O)C2(O)C(=O)C3=C(O)c4c(O)cccc4C(C)(O)C3CC12 (stereo not drawn)
endpoint: median tumor weight (est.), dose: 50.0 mg/kg/injection, schedule: Q07DX002 (ip), vehicle: saline with Tween-80, higher = larger tumour
  T/C: 82 % of control
[2]
  T/C: 95 % of control
[3]
  T/C: 56 % of control
endpoint: median tumor weight (est.), dose: 400.0 mg/kg/injection, schedule: Q07DX002 (ip), vehicle: saline with Tween-80, higher = larger tumour
  T/C: 17 % of control

## Nc1nc(N)c2cc(CNc3ccc(C(=O)NC(CC(=O)O)CC(=O)O)cc3)ccc2n1
[11]
  T/C: 120 % of control
[12]
  T/C: 97 % of control
[9]
  T/C: 60 % of control
[10]
  T/C: 114 % of control
[14]
  T/C: 76 % of control

## O=C(O)C(O)C(O)C1[O][Sb][O]C1C(=O)O (stereo not drawn)
[4]
  T/C: 90 % of control
[5]
  T/C: 35 % of control
[6]
  T/C: 109 % of control
[7]
  T/C: 85 % of control

## CC(=O)NC(C=O)OCC=O (stereo not drawn)
endpoint: median tumor weight (est.), dose: 12.5 mg/kg/injection, schedule: Q07DX002 (ip), vehicle: water, higher = larger tumour
  T/C: 92 % of control
endpoint: median tumor weight (est.), dose: 400.0 mg/kg/injection, schedule: Q07DX002 (ip), vehicle: water, higher = larger tumour
  T/C: 152 % of control

## c1ccc([P+](c2ccccc2)(c2ccccc2)c2ccccc2)cc1
endpoint: median tumor weight (est.), dose: 0.75 mg/kg/injection, schedule: Q07DX002 (ip), vehicle: saline, higher = larger tumour
  T/C: 91 % of control
endpoint: median tumor weight (est.), dose: 0.75 mg/kg/injection, schedule: Q07DX003 (ip), vehicle: saline, higher = larger tumour
  T/C: 84 % of control
endpoint: median tumor weight (est.), dose: 1.5 mg/kg/injection, schedule: Q07DX002 (ip), vehicle: saline, higher = larger tumour
  T/C: 95 % of control
endpoint: median tumor weight (est.), dose: 1.5 mg/kg/injection, schedule: Q07DX003 (ip), vehicle: saline, higher = larger tumour
  T/C: 83 % of control
endpoint: median tumor weight (est.), dose: 3.0 mg/kg/injection, schedule: Q07DX002 (ip), vehicle: saline, higher = larger tumour
  T/C: 77 % of control
endpoint: median tumor weight (est.), dose: 3.0 mg/kg/injection, schedule: Q07DX003 (ip), vehicle: saline, higher = larger tumour
  T/C: 69 % of control
endpoint: median tumor weight (est.), dose: 6.0 mg/kg/injection, schedule: Q07DX002 (ip), vehicle: saline, higher = larger tumour
  T/C: 112 % of control
endpoint: median tumor weight (est.), dose: 6.0 mg/kg/injection, schedule: Q07DX003 (ip), vehicle: saline, higher = larger tumour
  T/C: 66 % of control
